± gives the expanded uncertainty stated by the source.
Columns and labels:
[1] = mn = molality of the nth substance listed, in mol/kg; details: 298.15 K; 100 kPa; Liquid; Frequency=2 MHz; Linear variable-path acoustic interferometer; m2 = 0
[2] = 298.15 K; 100 kPa; Liquid; Frequency=2 MHz; Linear variable-path acoustic interferometer

Row | Compound | speed of sound [1] | speed of sound [2]
1 | O [water] + CCCCn1cc[n+](C)c1.C[C@H](N)C(=O)[O-] | 1497.8 ± 2.5 m/s | 
2 | O [water] + CC(C)[C@H](N)C(=O)[O-].CCCCn1cc[n+](C)c1 | 1497.6 ± 2.5 m/s | 
3 | O [water] + CCCCn1cc[n+](C)c1.CC[C@H](C)[C@H](N)C(=O)[O-] | 1497.8 ± 2.5 m/s | 
4 | O [water] + CC(C)C[C@H](N)C(=O)[O-].CCCCn1cc[n+](C)c1 | 1497.6 ± 2.5 m/s | 
5 | O [water] + CCCCn1cc[n+](C)c1.NCC(=O)[O-] | 1497.6 ± 2.5 m/s | 
6 | O [water] |  | 1497.7 ± 2.5 m/s

Source: the NIST ThermoML archive (doi:10.1016/j.jct.2014.07.026)
